Data taken from article PMC10995865 (Virus Research, 2024).

Assays:
AsfvPolX-DNA complex = AsfvPolX-DNA complex (African swine fever virus, UniProt P42494); experiment: biochemical; type: binding
AsfvPolX = AsfvPolX (African swine fever virus, UniProt P42494); settings: cited from earlier work
AsfvPolX, sequence (P42494 whole entry, looked up): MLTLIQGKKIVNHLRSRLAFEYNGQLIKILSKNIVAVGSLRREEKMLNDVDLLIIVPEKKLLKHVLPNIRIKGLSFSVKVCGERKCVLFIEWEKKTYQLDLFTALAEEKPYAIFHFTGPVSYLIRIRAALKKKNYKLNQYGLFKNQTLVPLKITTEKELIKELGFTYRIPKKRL

AsfvPolX-DNA complex, sequence (P42494 whole entry, looked up, one chain of several): as the sequence (P42494 whole entry, looked up) above

Molecule	inhibition at 100 µM (AsfvPolX-DNA complex; read-out: Inhibition of AsfvPolX-DNA complex formation)	Effect on AsfvPolX activity (AsfvPolX)	Inhibition of AsfvPolX-DNA complex formation (AsfvPolX-DNA complex; 100 µM)	Inhibition of AsfvPolX activity (AsfvPolX; 100 µM)
COc1cc(Nc2ncc(F)c(Nc3ccc4c(n3)N(COP(=O)(O)O)C(=O)C(C)(C)O4)n2)cc(OC)c1OC [fostamatinib]	0%	dose-dependent decrease	–	–
pentagastrin	–	–	0%	60%
